The values that follow come from EP2436673A1 (Niaraki, Anna, priority 2010, dated 2012).

The target in assay [1] is T1, Aβ1-42 monomers (Homo sapiens, UniProt P05067).
T1 construct: The native Aβ1-42 peptide was then obtained from the depsi peptide; made in house; host or cells: chemical peptide synthesis (depsi-peptide, then pH switch)
Put plainly: Surface Plasmon Resonance (SPR) binding to immobilized Aβ1-42 monomers. The procedure: (§1) For these studies we used the ProteOn XPR36 (Biorad) apparatus, which has six parallel flow channels that can be used to uniformly immobilize strips of six "ligands" on the sensor surface. Aβ1-42 "monomers" or fibrils were immobilized in two of these parallel-flow channels of a GLC sensor chip (Biorad) using amine-coupling chemistry. Briefly, after surface activation the peptide solutions (10 µM in acetate buffer pH 4.0) were injected for 5 min at a flow rate of […], and the remaining activated groups were blocked with ethanolamine, pH 8.0. Bovine serum albumin (BSA) was also immobilized in another parallel flow channel, as a reference protein. […] A fourth surface was prepared using the same immobilization procedure but without addition of the peptide ("empty", reference surface).
(§2) The fluidic system of Proteon XPR36 can automatically rotate 90° so that up to six different "analytes" (e.g. different liposomes prepations, or different concentrations of the same preparation) could be injected simultaneously over all the different immobilized molecules.
(§3) ProteOn analysis software (BioRad) was used for the fitting of sensorgrams, to obtain the association and dissociation rate constants of the binding (Kon and Koff) and the corresponding KD value. The simplest 1:1 interaction model (Langmuir model) is used at first.

The target in assay [2] is T2, Aβ1-42 fibrils (Homo sapiens, UniProt P05067).
T2 construct: made in house; host or cells: chemical peptide synthesis (depsi-peptide, pH switch, then acid incubation to fibrils)
Put plainly: Surface Plasmon Resonance (SPR) binding to immobilized Aβ1-42 fibrils. As for the experimental part:
To prepare Aβ1-42 fibrils, the switched peptide solution was diluted with water to 100 µM, acidified to pH 2.0 with 1 M HCl, and left to incubate for 24 hrs at 37 °C [56].
as §1, §2, §3

Assay [3] relates to Aβ aggregation. The note with it: reported in literature; cited from earlier work.
[4] abbreviates: SPR, liposomes 18 at 300 nM exposed curcumin-derivative, plain liposomes at 1360 nM.
Where [5] appears, read: additional, fibril-specific binding component, two-sites model.

T2 sequence (P05067 672-713 limits assumed): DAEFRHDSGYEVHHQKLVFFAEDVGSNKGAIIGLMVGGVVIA
T1 sequence (P05067 672-713 limits assumed): as above

`Nc1c(/N=N/c2ccc(-c3ccc(/N=N/c4cc(S(=O)(=O)O)c5ccccc5c4N)cc3)cc2)cc(S(=O)(=O)O)c2ccccc12` [Congo-Red, reference compound]: in assay [1] (setting [4]), the “binding to Aβ1-42 monomers (in words)” value is listed as “only bound to Aβ fibrils but not "monomers"”. In addition, the “binding to Aβ1-42 fibrils (in words)” value in assay [2] (setting [4]) was “only bound to Aβ fibrils”.

For `COc1cc(/C=C/c2cc(/C=C/c3ccc(O)c(OC)c3)n(CC(=O)NCc3cn(CCOCCOCCO)nn3)n2)ccc1O` [TREG, 2-(3,5-bis((E)-4-hydroxy-3-methoxystyryl)-1H-pyrazol-1-yl)-N-((1-(2-(2-(2-hydroxyethoxy)ethoxy)ethyl)-1H-1,2,3-triazol-4-yl)methyl)acetamide], the dissociation constant (Kd) (in general, the constant that tells how readily two partners part at equilibrium) in assay [1] (Aβ1-42 monomers, rough estimate from Kon and Koff after global fitting, one-site model) is 23 µM. Besides, in assay [2] (setting [5]), binding was characterised by a dissociation constant (Kd) of 7 µM, the off-rate (koff) (usually the rate constant with which the complex falls apart) amounted to 0.001 s⁻¹ and the kon (usually the rate constant with which the complex forms) stood at 163 M⁻¹ s⁻¹.

On to `COc1cc(/C=C/C(=O)CC(=O)/C=C/c2ccc(O)c(OC)c2)ccc1O` [curcumin, Curcumin], for which the “inhibition of Aβ aggregation (in words)” value in assay [3] is recorded as “inhibits Aβ aggregation in the low µM range”.
